For data set [1] the following is noted: late stage HAT patients; cited from earlier work.
The subject of a further data set is T. b. brucei. Further details: method as in PMID 20439607. As to conditions: read-out: IC50 versus T. b. brucei; cited from earlier work.
Details of data set [2]: method as in PMID 25141257. As to conditions: cited from earlier work.
The nature of data set [3]: Mouse pharmacokinetics (plasma, whole blood, brain). Format: in vivo, male CD-1 mice. Conditions: for bioavailability: from dose normalised AUClast values, read-out: F (oral bioavailability); for Vd: read-out: Vdss. How it is done:
In order to determine the suitability of the more permeable hits for in vivo efficacy studies, we first measured their aqueous solubilities, and their tendencies to metabolise, following a 1 h incubation with CD-1 mouse liver S9 subcellular fractions.[14] […] This led us to probe their in vivo pharmacokinetic (PK) profiles in mice, examining concentration levels in plasma, whole blood and brain tissue following both intravenous and oral administration (Table 2; for further experimental details, see the Supporting Information). […]
Mouse Pharmacokinetics. The in-life portion of PK testing was carried out by ViviSource Laboratories, Inc., Mass achusetts, USA, and PK samples were anal ysed by Sc ynexis, Inc.
Test compounds (9, 12, 17, and 19) w er e each administered as single doses to groups of 10 male CD-1 mice by bolus intravenous injection or oral gavage. Intravenous dosing (at a nominal dose of 2 mg/kg) emplo yed a solution vehicle comprising either 20% EtOH, 20% propylene gl ycol, and 30% PEG -400 in normal saline (for powders 9, 17, and 19) or 0.5% (hydrox yprop yl)meth ylcellulose, 0.4% Tween 80, 0.5% benz yl alcohol, and 20% DMSO i n deionised water (for oil 12). […]
in 0.5% methylcellulose, 0.08% Tween 80 in water ( ex cept fo r oil 12, where the formulation additionally contained 20% DMSO). […]

A further data set has as its system L929 mouse fibroblasts. Description: Cytotoxicity toward L929 mouse fibroblasts (Scynexis). Format: cell-based.
The nature of data set [4]: Kinetic aqueous solubility in pH 7.4 PBS. Format: physicochemical. An excerpt: Table 1 Inhibitory potency, metabolic stability, aqueous solubility, and MDCK-MDR1 cell permeability for 15 screening hits against T. b. brucei. | column: Solubility ^c / (µg/mL)
The nature of another data set: in vitro. As to conditions: dog, MDCK-MDR1, Permeability Papp.
The test system of another data set is T. b. brucei 427. The data set is described as follows: T. b. brucei 427 growth inhibition (Scynexis). Format: cell-based, Trypanosoma brucei brucei.
The nature of the next data set: Mouse liver S9 stability. In kind it is in vitro ADME. Conditions: CD-1, mouse, mouse liver S9 subcellular fraction, half-life in mouse liver S9 fraction; read-out: Mouse S9 t1/2.
The mark [5] stands for this setting: male, CD-1, mouse, brain, intravenous, corrected doses 0.5, 1.1, 2.9, 2.0 mg/kg for 9, 12, 17, 19.
Setting [6] is: male, CD-1, mouse, brain, oral, corrected doses 62, 50, 78, 49 mg/kg for 9, 12, 17, 19.
[7] abbreviates: male, CD-1, mouse, plasma, intravenous, corrected doses 0.5, 1.1, 2.9, 2.0 mg/kg for 9, 12, 17, 19.
Where [8] appears, read: male, CD-1, mouse, plasma, oral, corrected doses 62, 50, 78, 49 mg/kg for 9, 12, 17, 19.
The mark [9] stands for this setting: male, CD-1, mouse, whole blood, intravenous, corrected doses 0.5, 1.1, 2.9, 2.0 mg/kg for 9, 12, 17, 19.
Setting [10] is: male, CD-1, mouse, whole blood, oral, corrected doses 62, 50, 78, 49 mg/kg for 9, 12, 17, 19.

Each structure is given as a SMILES string. Values after ≈ are worked out from the molar mass of the structure shown. Read-outs that look alike come from different tables or passages of the source.

For `Nc1nc(N)nc(Nc2ccc([As]3SCC(CO)S3)cc2)n1` (stereo not shown) [melarsoprol], in data set [1], the “death of patients caused by treatment” value is on record as approximately 5%.
On to `O=[N+]([O-])c1cn2c(n1)OC[C@@H](OCc1ccc(OC(F)(F)F)cc1)C2` [Compound 6, pretomanid], for which the IC50 (in general, the concentration needed to halve the response being measured) in the data set with T. b. brucei was 38 µM. Also, in [2], the “oral half-life in mouse lung tissue” value is listed as 4.8 h.
Regarding `O=[N+]([O-])c1cn2c(n1)OC[C@@H](NCc1ccc(OC(F)(F)F)cc1)C2` [Compound 17], in [3] (male, CD-1, mouse, in vivo, po), the “time beyond which exposure above the MIC is inadequate” value was approximately 2 h. The half-life in [3] (male, CD-1, mouse, po, 78 mg/kg, over plasma, whole blood, brain, read-out: oral half-life) is 1.2 to 1.5 h; in data set [3] (male, CD-1, mouse, brain, intravenous, corrected doses 0.5, 1.1, 2.9, 2.0 mg/kg for 9, 12, 17, 19, read-out: t1/2 (converted)), 0.26 h; in data set [3] (male, CD-1, mouse, brain, oral, corrected doses 62, 50, 78, 49 mg/kg for 9, 12, 17, 19, read-out: t1/2 (converted)) it was 1.3 h; in data set [3] (male, CD-1, mouse, plasma, intravenous, corrected doses 0.5, 1.1, 2.9, 2.0 mg/kg for 9, 12, 17, 19, read-out: t1/2 (converted)), 0.48 h; in [3] (male, CD-1, mouse, plasma, oral, corrected doses 62, 50, 78, 49 mg/kg for 9, 12, 17, 19, read-out: t1/2 (converted)), 1.2 h; in data set [3] (male, CD-1, mouse, whole blood, intravenous, corrected doses 0.5, 1.1, 2.9, 2.0 mg/kg for 9, 12, 17, 19, read-out: t1/2 (converted)), 9.3 h. Also, the half-life was 1.5 h in data set [3] (male, CD-1, mouse, whole blood, oral, corrected doses 62, 50, 78, 49 mg/kg for 9, 12, 17, 19, read-out: t1/2 (converted)) and more than 5.83 h in “Mouse liver S9 stability”. Besides, the bioavailability – broadly, dose-corrected exposure relative to a reference, in per cent – in data set [3] (male, CD-1, mouse, po, brain) worked out at 100%; in [3] (male, CD-1, mouse, po, plasma), 100%; in [3] (male, CD-1, mouse, po, whole blood), 100%. In addition, the AUC(0-t) (usually exposure summed from dosing to a finite time, without extrapolation to infinity) is 962 ng·h/mL in [3] (setting [5]); 50900 ng·h/mL in [3] (setting [6]); 418 ng·h/mL in data set [3] (setting [7]); 20500 ng·h/mL in [3] (setting [8]); 1100 ng·h/mL in data set [3] (setting [9]); 42200 ng·h/mL in [3] (setting [10]). The values for the clearance in data set [3] (setting [5]), in data set [3] (setting [7]) and in data set [3] (setting [9]) were 48.3 mL/min/kg, 113 mL/min/kg and 40 mL/min/kg, respectively. Also, the Vd was 2.3 L/kg in data set [3] (setting [5]), 4.7 L/kg in data set [3] (setting [7]) and 8.1 L/kg in data set [3] (setting [9]). Besides, the peak concentration (Cmax) (commonly the maximum level reached in the sampled fluid or tissue) in [3] (setting [6]) was determined as 35000 ng/mL; in data set [3] (setting [8]), 12000 ng/mL; in [3] (setting [10]), 26000 ng/mL. Besides, the Tmax (commonly the time at which the peak concentration occurs) in data set [3] (setting [6]) stood at 0.5 h; in [3] (setting [8]), 1 h; in data set [3] (setting [10]), 0.5 h. In addition, the “concentration levels in brain tissue relative to plasma (fold higher)” value in data set [3] (mouse, in vivo) was 2- to 3 fold. In addition, in data set [2], the “oral half-life in mouse lung tissue” value is reported as 1.3 h. The IC50 in the data set on L929 mouse fibroblasts is more than 10 µg/mL; in the data set on T. b. brucei 427 (Trypanosoma brucei, growth inhibition of T. b. brucei 427, mean ± SD), 0.78 ± 0.01 µg/mL (≈ 2.18 µM). For the same compound, the solubility (commonly how much of the substance goes into solution per volume) in data set [4] was more than 72 µg/mL. Further, the Papp (as a rule, a coefficient for how fast a substance crosses the barrier) at 1 h, 3 µM in “in vitro” worked out at 80.4 ×10⁻⁶ cm/s. In addition, the “Selectivity Index” value in the data set with T. b. brucei 427 (L929 vs T. b. brucei) was more than 13.
